Test results taken from ChEMBL document CHEMBL1201862, “PubChem BioAssay data set” (2004).
Activity calls are given as the source filed them.

Assays:
[1] = biological target: Heat shock protein HSP 90-alpha (Homo sapiens, UniProt P07900); assay type: functional, organism-based
[2] = system: Vero; experiment: cells; assay type: functional; details: Chlorocebus sabaeus
[3] = system: Streptococcus; experiment: Group A Streptococcus viability loss, dose response, counter-screen for streptokinase expression inhibitor project, luminescence, BacTiterGlo (AID 1915); assay type: functional, organism-based;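 note: potency for reduction of bacterial viability or growth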
[4] = biological target: T1, Calpain-2 catalytic subunit (Sus scrofa, UniProt P43367); experiment: pig calpain II inhibitor potency, dose response, biochemical, fluorogenic peptide substrate (AID 1420); assay type: functional
T1 sequence (P43367 whole entry): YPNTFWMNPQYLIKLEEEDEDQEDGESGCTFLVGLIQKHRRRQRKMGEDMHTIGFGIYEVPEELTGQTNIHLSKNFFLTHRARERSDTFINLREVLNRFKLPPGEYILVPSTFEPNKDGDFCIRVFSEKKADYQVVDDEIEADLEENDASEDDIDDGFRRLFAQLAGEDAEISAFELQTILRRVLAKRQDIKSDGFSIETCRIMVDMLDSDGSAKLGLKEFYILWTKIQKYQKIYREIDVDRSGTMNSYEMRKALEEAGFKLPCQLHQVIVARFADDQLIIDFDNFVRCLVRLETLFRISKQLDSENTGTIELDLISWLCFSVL

[5] = biological target: T2, Streptokinase A (Streptococcus pyogenes serotype M1, UniProt P10520); experiment: S. pyogenes streptokinase expression inhibitors, potency, dose response, plasminogen activation absorbance, OD405 (AID 1914); assay type: functional, Streptococcus pyogenes M1 GAS;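 note: secreted streptokinase activity via plasminogen activation per viability signal from cell pellet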
T2 sequence (P10520 whole entry): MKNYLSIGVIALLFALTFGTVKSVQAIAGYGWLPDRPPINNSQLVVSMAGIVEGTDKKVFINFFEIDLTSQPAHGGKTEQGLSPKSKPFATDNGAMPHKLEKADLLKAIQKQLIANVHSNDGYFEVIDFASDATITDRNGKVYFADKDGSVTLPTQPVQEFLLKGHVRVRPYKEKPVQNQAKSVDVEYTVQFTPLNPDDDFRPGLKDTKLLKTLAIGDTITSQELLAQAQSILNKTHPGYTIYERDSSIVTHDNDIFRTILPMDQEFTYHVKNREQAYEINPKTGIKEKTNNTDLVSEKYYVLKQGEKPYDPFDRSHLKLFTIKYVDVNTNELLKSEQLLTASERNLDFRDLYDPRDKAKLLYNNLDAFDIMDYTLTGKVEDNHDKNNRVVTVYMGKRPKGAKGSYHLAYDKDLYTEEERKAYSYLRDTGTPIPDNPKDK

[6] = biological target: Mu-type opioid receptor (Homo sapiens, UniProt P35372); experiment: (§1) Counterscreen for agonists of heterodimerization of the mu 1 (OPRM1) and delta 1 (OPRD1) opioid receptors: Luminescence-based cell-based high throughput dose response assay to identify agonists of OPRM1 homodimerization.; assay type: functional
[7] = biological target: Delta-type opioid receptor (Homo sapiens, UniProt P41143); experiment: as §1, with “of OPRD1” for “of OPRM1”, “homodimerization. [Related pubchem assays (depositor defined):AID504326, AID504355, AID504692, AID504904, AID504905]” for “homodimerization.”; assay type: functional
[8] = biological target: 5-hydroxytryptamine receptor 5A (Homo sapiens, UniProt P47898); experiment: Counterscreen for agonists of OPRM1-OPRD1 heterodimerization: luminescence-based cell-based high throughput dose response assay to identify agonists of 5-hydroxytryptamine (serotonin) 5A receptor (HTR5A). [Related pubchem assays (depositor defined):AID504326, AID504355, AID504692, AID504904, AID504905]; assay type: functional
[9] = insulin promoter down-regulators in MIN6 cells, imaging, high-content screening, mouse beta cells (AID 1628); assay type: functional
[10] = cytotoxicity in MIN6 insulinoma cells, dose response, cytotoxicity control, cell-based, mouse insulinoma (AID 2122); assay type: functional;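 note: confirmatory high-throughput counterscreen run to flag cytotoxic compounds; mouse MIN-6 beta cells carrying an insulin promoter eGFP reporter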
[11] = biological target: T3, Lysine-specific demethylase 4C (Homo sapiens, UniProt Q9H3R0); experiment: GASC-1 (JMJD2C) histone demethylase inhibitors, dose response, biochemical, DELFIA europium, cherry-picked samples (AID 488835); assay type: functional
T3 sequence (Q9H3R0 whole entry): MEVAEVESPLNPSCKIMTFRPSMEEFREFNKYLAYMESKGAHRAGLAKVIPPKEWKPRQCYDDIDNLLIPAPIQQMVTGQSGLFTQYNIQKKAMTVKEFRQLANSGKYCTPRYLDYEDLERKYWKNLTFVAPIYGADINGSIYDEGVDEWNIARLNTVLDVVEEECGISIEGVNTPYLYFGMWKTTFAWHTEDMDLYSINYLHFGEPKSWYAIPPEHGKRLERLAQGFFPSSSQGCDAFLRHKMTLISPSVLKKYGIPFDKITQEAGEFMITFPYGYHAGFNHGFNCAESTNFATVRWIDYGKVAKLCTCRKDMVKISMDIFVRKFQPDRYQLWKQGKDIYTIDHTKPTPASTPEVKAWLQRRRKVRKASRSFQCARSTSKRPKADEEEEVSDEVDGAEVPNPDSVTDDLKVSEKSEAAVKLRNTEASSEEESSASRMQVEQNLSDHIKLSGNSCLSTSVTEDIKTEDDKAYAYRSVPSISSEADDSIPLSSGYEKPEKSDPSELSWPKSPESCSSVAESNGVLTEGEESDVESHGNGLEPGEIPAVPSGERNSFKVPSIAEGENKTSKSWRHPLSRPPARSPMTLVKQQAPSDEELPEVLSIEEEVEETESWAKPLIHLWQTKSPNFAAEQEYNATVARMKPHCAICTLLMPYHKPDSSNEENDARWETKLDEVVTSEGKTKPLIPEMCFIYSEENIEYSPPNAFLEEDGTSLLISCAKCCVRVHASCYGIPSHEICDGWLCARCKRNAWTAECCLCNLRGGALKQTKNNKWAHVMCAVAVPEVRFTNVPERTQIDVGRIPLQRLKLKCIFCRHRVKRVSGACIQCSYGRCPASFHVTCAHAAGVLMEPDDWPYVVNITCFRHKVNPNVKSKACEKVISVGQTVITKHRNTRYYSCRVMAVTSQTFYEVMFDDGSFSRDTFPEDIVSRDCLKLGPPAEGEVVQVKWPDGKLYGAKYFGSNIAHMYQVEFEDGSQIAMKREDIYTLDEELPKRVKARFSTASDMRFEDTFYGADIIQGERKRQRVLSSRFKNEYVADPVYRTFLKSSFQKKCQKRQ

[12] = biological target: T4, Long-chain-fatty-acid--AMP ligase FadD28 (Mycobacterium tuberculosis, UniProt P9WQ59); experiment: Fluorescence polarization aasay to screen for inhibitors that compete for the binding of FadD28 to a bisubstrate Measured in Biochemical System Using Plate Reader - 2147-01_Inhibitor_Dose_CherryPick_Activity.; assay type: functional, Mycobacterium tuberculosis H37Rv
T4 sequence (P9WQ59 whole entry): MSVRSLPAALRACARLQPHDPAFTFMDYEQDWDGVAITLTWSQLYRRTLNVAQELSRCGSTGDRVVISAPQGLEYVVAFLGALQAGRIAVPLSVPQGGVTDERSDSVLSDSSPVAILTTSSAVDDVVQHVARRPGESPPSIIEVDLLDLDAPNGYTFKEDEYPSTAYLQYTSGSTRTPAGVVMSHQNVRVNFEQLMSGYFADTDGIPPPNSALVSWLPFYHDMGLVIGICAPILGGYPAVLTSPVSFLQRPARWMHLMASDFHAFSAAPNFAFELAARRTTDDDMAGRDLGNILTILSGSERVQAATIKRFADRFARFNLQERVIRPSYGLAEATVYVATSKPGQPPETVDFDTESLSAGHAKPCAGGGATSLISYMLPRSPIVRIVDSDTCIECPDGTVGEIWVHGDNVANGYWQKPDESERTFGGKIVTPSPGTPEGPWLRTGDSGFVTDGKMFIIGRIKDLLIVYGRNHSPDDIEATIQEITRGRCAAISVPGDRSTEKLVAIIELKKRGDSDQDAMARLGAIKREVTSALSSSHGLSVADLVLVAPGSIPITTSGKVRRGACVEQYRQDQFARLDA

[13] = biological target: E3 ubiquitin-protein ligase Mdm2 (Homo sapiens, UniProt Q00987); experiment: enhancers of MDM2-luciferase reporter signal, concentration-effect titration, project on inhibitors of MDM2 ubiquitin ligase, cellular assay, luminescent readout, 384-well plate format (AID 1394); assay type: functional;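 note: MDM2 E3 inhibitors raise luminescence so EC50 is for signal enhancement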
[14] = biological target: Large T antigen (Simian virus 40, UniProt P03070); assay type: functional, Betapolyomavirus macacae;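 note: Confirmatory-stage PubChem screen for compounds that inhibit SV40 T antigen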
Chain of Large T antigen (P03070 whole entry): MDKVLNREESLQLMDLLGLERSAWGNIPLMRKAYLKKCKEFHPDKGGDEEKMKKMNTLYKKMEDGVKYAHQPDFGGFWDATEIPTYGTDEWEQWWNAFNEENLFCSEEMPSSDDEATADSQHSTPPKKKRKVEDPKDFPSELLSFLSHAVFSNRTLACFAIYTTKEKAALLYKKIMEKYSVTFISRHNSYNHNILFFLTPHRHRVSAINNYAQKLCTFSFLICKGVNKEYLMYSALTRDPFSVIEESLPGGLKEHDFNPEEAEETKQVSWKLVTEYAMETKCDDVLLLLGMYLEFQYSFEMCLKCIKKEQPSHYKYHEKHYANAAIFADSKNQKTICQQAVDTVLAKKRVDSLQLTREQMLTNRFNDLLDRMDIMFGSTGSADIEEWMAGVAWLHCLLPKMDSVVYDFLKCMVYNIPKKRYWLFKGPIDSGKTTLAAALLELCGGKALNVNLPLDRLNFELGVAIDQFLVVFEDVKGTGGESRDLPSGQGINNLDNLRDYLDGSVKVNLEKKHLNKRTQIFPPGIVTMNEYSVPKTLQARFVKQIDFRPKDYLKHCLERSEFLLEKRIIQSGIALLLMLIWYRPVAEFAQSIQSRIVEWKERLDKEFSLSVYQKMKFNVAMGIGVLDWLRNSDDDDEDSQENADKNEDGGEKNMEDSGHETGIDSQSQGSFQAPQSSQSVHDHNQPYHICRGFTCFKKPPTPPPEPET

Chain of 5-hydroxytryptamine receptor 5A (P47898 whole entry): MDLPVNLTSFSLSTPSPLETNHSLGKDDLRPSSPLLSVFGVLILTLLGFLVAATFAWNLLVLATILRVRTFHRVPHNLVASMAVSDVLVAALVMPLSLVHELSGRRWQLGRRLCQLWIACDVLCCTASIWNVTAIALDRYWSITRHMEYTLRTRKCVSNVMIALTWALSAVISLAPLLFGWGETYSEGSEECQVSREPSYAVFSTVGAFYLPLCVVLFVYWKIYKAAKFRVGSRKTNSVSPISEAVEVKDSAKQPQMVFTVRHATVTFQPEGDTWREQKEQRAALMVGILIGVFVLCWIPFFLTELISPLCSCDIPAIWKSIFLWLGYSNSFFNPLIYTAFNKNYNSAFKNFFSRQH
Chain of Delta-type opioid receptor (P41143 whole entry): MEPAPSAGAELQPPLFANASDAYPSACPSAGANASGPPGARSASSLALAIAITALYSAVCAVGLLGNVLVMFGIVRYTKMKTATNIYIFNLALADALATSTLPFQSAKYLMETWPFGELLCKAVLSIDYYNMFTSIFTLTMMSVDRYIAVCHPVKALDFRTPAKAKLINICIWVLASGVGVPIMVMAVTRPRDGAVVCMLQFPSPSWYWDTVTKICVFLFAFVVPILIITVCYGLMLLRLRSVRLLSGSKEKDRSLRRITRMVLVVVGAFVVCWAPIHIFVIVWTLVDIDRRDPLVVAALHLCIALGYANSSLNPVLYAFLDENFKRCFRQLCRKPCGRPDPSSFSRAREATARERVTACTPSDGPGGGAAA
Chain of Mu-type opioid receptor (P35372 whole entry): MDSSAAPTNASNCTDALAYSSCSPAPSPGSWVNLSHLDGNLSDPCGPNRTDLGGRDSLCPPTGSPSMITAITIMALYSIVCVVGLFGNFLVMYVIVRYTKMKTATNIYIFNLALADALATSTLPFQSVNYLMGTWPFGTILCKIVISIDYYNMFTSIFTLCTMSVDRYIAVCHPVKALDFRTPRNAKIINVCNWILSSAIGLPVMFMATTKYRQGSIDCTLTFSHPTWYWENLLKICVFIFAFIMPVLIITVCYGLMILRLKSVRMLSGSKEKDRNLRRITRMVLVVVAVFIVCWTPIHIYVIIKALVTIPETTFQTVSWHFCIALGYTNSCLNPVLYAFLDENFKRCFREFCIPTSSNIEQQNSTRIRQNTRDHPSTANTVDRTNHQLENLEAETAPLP
Chain of E3 ubiquitin-protein ligase Mdm2 (Q00987 whole entry): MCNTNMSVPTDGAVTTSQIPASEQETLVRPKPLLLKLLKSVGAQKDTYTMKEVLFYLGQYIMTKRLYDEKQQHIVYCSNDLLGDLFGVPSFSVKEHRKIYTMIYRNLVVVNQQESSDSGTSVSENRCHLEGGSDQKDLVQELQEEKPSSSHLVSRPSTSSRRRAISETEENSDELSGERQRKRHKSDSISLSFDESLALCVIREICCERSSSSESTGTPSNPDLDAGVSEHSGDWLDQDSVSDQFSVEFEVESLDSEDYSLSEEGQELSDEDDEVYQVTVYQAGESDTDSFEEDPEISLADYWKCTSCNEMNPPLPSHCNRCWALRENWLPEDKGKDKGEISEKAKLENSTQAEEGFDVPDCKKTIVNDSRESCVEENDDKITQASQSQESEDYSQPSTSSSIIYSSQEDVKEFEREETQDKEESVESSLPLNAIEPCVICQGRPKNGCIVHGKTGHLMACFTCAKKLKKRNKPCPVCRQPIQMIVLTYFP

**Q.** Which AC50 [1] does the source give for `CCCc1ccc(Oc2c[nH]nc2-c2ccc(O)c(C)c2O)cc1` here?
**A.** Its AC50 is 3.08 µM (active).

**Q.** What about the CC50 [2] of the same molecule?
**A.** Its CC50 is > 25 µM (active).

**Q.** What about the EC50 [3] of the same molecule?
**A.** The EC50 was 8.83 µM (active).

**Q.** And the IC50 [4]?
**A.** Its IC50 is 38.2 µM (not active).

**Q.** And the EC50 [5]?
**A.** Its EC50 is > 150 µM (not active).

**Q.** Which results are given for `CN(C)C(CNC(=O)CSC(=S)N1CCCC1)c1ccccc1` (configuration not stated)?
**A.** EC50 [6]: 17.1 µM (inactive); EC50 [7]: > 92.5 µM (inactive); EC50 [8]: > 92.5 µM (inactive)

**Q.** For `Cn1c(=O)c2c(nc(NCc3ccc4c(c3)OCO4)n2Cc2ccccc2)n(C)c1=O`, which IC50 [9] is on record?
**A.** The IC50 was 0.696 µM (active).

**Q.** And the IC50 [10]?
**A.** Its IC50 is 0.541 µM (active).

**Q.** Which EC50 [6] does the source give for `COc1ccccc1NC(=O)c1sc2nc(C)cc(C)c2c1N` here?
**A.** Its EC50 is > 92.5 µM (inactive).

**Q.** What about the EC50 [7] of the same molecule?
**A.** Its EC50 is > 92.5 µM (inactive).

**Q.** What about the EC50 [8] of the same molecule?
**A.** The EC50 was > 92.5 µM (inactive).

**Q.** For `CCN1C(=O)C(=C/C=C/c2ccco2)C(=O)N(CC)C1=S`, which AC50 [11] is on record?
**A.** The AC50 was 1.18 µM (active).

**Q.** And the AC50 [12]?
**A.** Its AC50 is > 100 µM (inactive).

**Q.** And the EC50 [13]?
**A.** Its EC50 is 25 µM (not active).

**Q.** And the IC50 [14]?
**A.** Its IC50 is 45.3 µM (active).
